According to patent US9708368B2, “Linear peptide antibiotics” (priority 2012, dated 2017):
≈ marks a conversion by molar mass, not a printed value. Like-named read-outs stand apart in the source and are kept apart here. Square brackets hold non-standard residues; d marks the D form. Peptide text beside a SMILES is read from it. * marks the point of attachment. ξ: configuration not given here. Biphenylcarbonyl(4'-Bu) = CCCCc1ccc(-c2ccc(C(=O)*)cc2)cc1; Benzoyl(4-hexyl) = CCCCCCc1ccc(C(=O)*)cc1; X5 = C[C@H](N*)B1OC2C3CCC(C3(C)C)C2(C)O1; NMeThr(3ξ) = CN[C@H](C(=O)O)C(C)O; Myristoyl = CCCCCCCCCCCCCC(=O)*; NMeE = CN[C@@H](CCC(=O)O)C(=O)O; Thr(3ξ) = CC(O)[C@H](N)C(=O)O; NMeK = CN[C@@H](CCCCN)C(=O)O; Decanoyl = CCCCCCCCCC(=O)*; boroAla = C[C@H](N*)B(O)O; Dab = NCC[C@H](N)C(=O)O; boroGly = OB(O)CN*; ξP = O=C(O)C1CCCN1; βAla = NCCC(=O)O; ξA = CC(N)C(=O)O

How the values were obtained:
S. aureus SPase [1] = target: T1, S. aureus SPase (Staphylococcus aureus, UniProt P0A070); experiment: biochemical
Experimental: (§1) Full length His-tagged S. aureus SPase protein was expressed similarly from E. coli BL21(DE3) containing the plasmid pCDF1-SaSpsB and purified similarly to the E. coli protein with the following exceptions. […] Protein purity was judged to exceed 95% by visual inspection of SDS-PAGE followed by Comassie staining. All protein concentrations were determined by BCA assay.
(§2) Reactions were initiated by the addition of substrate to a final concentration of 20 μM. Reaction progress was monitored by measuring the increase in fluorescence signal (excitation at 314 nm, emission at 416 nm) using a SpectraMax M2 fluorescence microplate reader. […] Three-folder serial dilutions of test compounds, starting at 10 μM, were prepared in enzyme mix solution and incubated at room temperature for 10 minutes. Following this incubation, fluorogenic substrate was added to a final concentration of 20 μM and the increase in fluorescence, corresponding to substrate cleavage, was monitored continuously at room temperature for 1 hour. Initial reaction rates were calculated based on the rate of increase in fluorescence during the reaction. Reaction rates were plotted as a function of compound concentration, and IC50 values are determined nonlinear regression analysis (SoftMaxPro 5.4, Molecular Devices™) of the sigmoidal dose-response curve.

[2] = test system: Escherichia coli MC4100 IMP-4213 in which transcription of the SPase encoding gene is under control of a tetracycline inducible promoter; conditions: Method A; E. coli MC4100 IMP-4213 with decreased SPase expression; 35° C., 22 hours
Experimental: (§3) In vitro antimicrobial activity of each compound was determined by measuring minimal inhibitor concentrations (MICs) using the broth micro-dilution technique as approved by the Clinical and Laboratory Standards Institute (CLSI). […] Cells were inoculated onto Trypyticase Soy Agar or Luria Agar containing 16 ng/ml of anhydrotetracycline respectively and grown at 35° C. for 20 hours. Inocula suspensions were made by scraping cells into 1 mL of testing media (cation adjusted Mueller Hinton Broth supplemented with 0.002% v/v Tween-80) and diluting to a final OD600 nm of 0.01.
(§4) Test compounds were prepared in DMSO at a concentration of 10 mg/ml. […] Inocula suspensions were added to the two fold serial dilutions of test compounds to a final density of OD OD600 nm of 0.0005 and incubated stationary at 35° C. for 22 hours, after which the plates were examined visually.

E. coli SPase = E. coli SPase (Escherichia coli, UniProt P00803); experiment: Biochemical SPase activity assay (fluorogenic peptide substrate), E. coli enzyme
[3] = test system: Methicillin Resistant Staphylococcus aureus strain USA 300 (NRS384)
Experimental: as §3, §4

S. aureus SPase [4] = target: T1, S. aureus SPase; conditions: read-out: IC 50 (nM) S. aureus
Experimental: as §1, §2

[5] = Method A, MRSA USA 300 (NRS384), 35° C., 22 hours

Sequence of E. coli SPase (P00803 whole entry): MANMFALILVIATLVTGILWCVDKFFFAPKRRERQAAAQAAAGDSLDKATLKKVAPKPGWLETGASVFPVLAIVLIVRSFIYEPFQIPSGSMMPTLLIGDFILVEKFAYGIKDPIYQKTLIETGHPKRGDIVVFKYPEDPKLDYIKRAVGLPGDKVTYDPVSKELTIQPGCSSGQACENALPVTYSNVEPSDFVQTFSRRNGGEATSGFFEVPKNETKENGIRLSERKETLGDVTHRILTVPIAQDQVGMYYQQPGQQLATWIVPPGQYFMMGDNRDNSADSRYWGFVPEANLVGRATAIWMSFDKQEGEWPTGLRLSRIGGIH
T1 sequence (P0A070 whole entry): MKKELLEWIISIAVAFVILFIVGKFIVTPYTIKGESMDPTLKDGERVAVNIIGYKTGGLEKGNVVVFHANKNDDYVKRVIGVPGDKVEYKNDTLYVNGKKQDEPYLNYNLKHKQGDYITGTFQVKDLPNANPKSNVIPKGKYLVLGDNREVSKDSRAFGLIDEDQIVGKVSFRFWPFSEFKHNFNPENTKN

SMILES	IC50 (S. aureus SPase [1]) [nM]	MIC (μg/mL) E. coli [2] [µg/mL]	IC50 (E. coli SPase) [nM]	MIC (μg/mL) S. aureus [3, 5] [µg/mL]	IC50 (S. aureus SPase [4]) [nM]	IC50 (E. coli SPase; read-out: IC 50 (nM) E. coli, E. coli SPase 2.5 nM, substrate 20 μM, 10 minutes pre-incubation) [nM]	MIC (μg/mL) S. aureus ([3]; USA 300, 22 h) [µg/mL]
CCCCCCCCCCCCCC(=O)N[C@@H](CC(C)C)C(=O)N[C@H](C(=O)N1CCC[C@@H]1C(=O)N[C@H](C(=O)N[C@@H](C)C(=O)N[C@@H](Cc1ccc(O)cc1)C(=O)NC(C)C(=O)C(=O)NC)C(C)O)C(C)O (mixture of isomers) [Compound 112]	3400	>64	31000	>64			
CCCCc1ccc(-c2ccc(C(=O)NCCC(=O)N[C@@H](CCCCN)C(=O)N[C@H](C(=O)N[C@@H](C)C(=O)N[C@@H](CC(N)=O)C(=O)NCB(O)O)C(C)O)cc2)cc1 (some centres unmarked) [Compound 118] ({Biphenylcarbonyl(4'-Bu)-βAla}-K[Thr(3ξ)]AN-boroGly)	9.4	11 (≈ 13.8 µM)	1100	0.71 (≈ 0.891 µM)			
CCCCc1ccc(-c2ccc(C(=O)N[C@H](CO)C(=O)N[C@H](C)C(=O)NCC(=O)N[C@H](C(=O)N[C@@H](C)C(=O)N[C@@H](CC(N)=O)C(=O)NCB(O)O)C(C)O)cc2)cc1 (some centres unmarked) [Compound 115] ({Biphenylcarbonyl(4'-Bu)}-[dS][dA]G[Thr(3ξ)]AN-boroGly)	170	>64	1000	>64			
CCCCCCCCCCCCCC(=O)N[C@H](CO)C(=O)N[C@H](C)C(=O)NCC(=O)N(C)[C@H](C(=O)N[C@@H](C)C(=O)N[C@@H](CC(C)C)C(=O)NCB(O)O)C(C)O (some centres unmarked) [Compound 122] (Myristoyl-[dS][dA]G[NMeThr(3ξ)]AL-boroGly)	7.6	>64	1500	40 (≈ 50 µM)			
CCCCc1ccc(-c2ccc(C(=O)N[C@@H](CCN)C(=O)N[C@H](C(=O)N[C@@H](C)C(=O)N[C@@H](CCCCN)C(=O)N[C@@H](C)B(O)O)[C@@H](C)O)cc2)cc1 [Compound 238] ({Biphenylcarbonyl(4'-Bu)}-[Dab]TAK-boroAla)					33	4.6	
CCCCCCc1ccc(C(=O)N[C@H](CO)C(=O)N[C@H](C)C(=O)NCC(=O)N(C)[C@H](C(=O)N[C@@H](C)C(=O)N[C@@H](CC(C)C)C(=O)NCC=O)C(C)O)cc1 (some centres unmarked) [Compound 102] ({Benzoyl(4-hexyl)}-[dS][dA]G[NMeThr(3ξ)]ALG-aldehyde)	9.7	>64	18000	>64			
CCCCCCc1ccc(C(=O)N[C@H](CO)C(=O)N[C@H](C)C(=O)NCC(=O)N(C)[C@H](C(=O)N[C@@H](C)C(=O)N[C@@H](CC(N)=O)C(=O)NCB(O)O)C(C)O)cc1 (some centres unmarked) [Compound 124] ({Benzoyl(4-hexyl)}-[dS][dA]G[NMeThr(3ξ)]AN-boroGly)	83	>64	810	>64			
CCCCCCCCCC(=O)N[C@@H](CC(C)C)C(=O)N[C@H](C(=O)N1CCC[C@@H]1C(=O)N[C@H](C(=O)N[C@@H](C)C(=O)N[C@@H](Cc1ccc(O)cc1)C(=O)NC(C)C=O)C(C)O)C(C)O (some centres unmarked) [Compound 109] (Decanoyl-L[Thr(3ξ)][dP][Thr(3ξ)]AY[ξA]-aldehyde)	4900	>64		>64			
CCCCCCCCCCCCCC(=O)N[C@@H](CC(C)C)C(=O)N[C@H](C(=O)N1CCC[C@@H]1C(=O)N[C@H](C(=O)N[C@@H](C)C(=O)N[C@@H](CC(N)=O)C(=O)NC(C)C=O)C(C)O)C(C)O (some centres unmarked) [Compound 108] (Myristoyl-L[Thr(3ξ)][dP][Thr(3ξ)]AN[ξA]-aldehyde)	2100	>64	20000	64 (≈ 72.6 µM)			
CCCCCCCCCCCCCC(=O)N[C@H](CO)C(=O)N[C@H](C)C(=O)NCC(=O)N(C)[C@H](C(=O)N[C@@H](C)C(=O)N[C@@H](CC(C)C)C(=O)N[C@@H](C)B1OC2C3CCC(C3(C)C)C2(C)O1)C(C)O (some centres unmarked) [Compound 123] (Myristoyl-[dS][dA]G[NMeThr(3ξ)]AL-X5)	42	25 (≈ 26.4 µM)	220	64 (≈ 67.5 µM)			
CCCCCCCCCC(=O)N[C@@H](CC(C)C)C(=O)N[C@H](C(=O)N1CCC[C@@H]1C(=O)N[C@H](C(=O)N[C@@H](C)C(=O)N[C@@H](Cc1ccc(O)cc1)C(=O)NC(C)C(=O)C(=O)NC)C(C)O)C(C)O (mixture of isomers) [Compound 111]	18000	>64	4900	>64			
CCCCCCc1ccc(C(=O)N[C@H](CO)C(=O)N[C@H](C)C(=O)NCC(=O)N(C)[C@H](C(=O)N[C@@H](C)C(=O)N[C@@H](CC(N)=O)C(=O)NCC=O)C(C)O)cc1 (some centres unmarked) [Compound 101] ({Benzoyl(4-hexyl)}-[dS][dA]G[NMeThr(3ξ)]ANG-aldehyde)	86	>64	11000	>64			
CCCCCCCCCCCCCC(=O)N[C@H](CO)C(=O)N[C@H](C)C(=O)NCC(=O)N(C)[C@H](C(=O)N[C@@H](C)C(=O)N[C@@H](CC(C)C)C(=O)NC(C)C(=O)C(=O)NC)C(C)O (mixture of isomers) [Compound 110]	150	>64					>64
CCCCc1ccc(-c2ccc(C(=O)N[C@H](CO)C(=O)N[C@H](C)C(=O)NCC(=O)N(C)[C@@H](CCC(=O)O)C(=O)N[C@@H](C)C(=O)N[C@@H](CC(N)=O)C(=O)NCB(O)O)cc2)cc1 [Compound 119] ({Biphenylcarbonyl(4'-Bu)}-[dS][dA]G[NMeE]AN-boroGly)	59	>64	290	>64			
CCCCc1ccc(-c2ccc(C(=O)N[C@H](CO)C(=O)N[C@H](C)C(=O)NCC(=O)N3CCCC3C(=O)N[C@@H](C)C(=O)N[C@@H](CC(N)=O)C(=O)NCB(O)O)cc2)cc1 (some centres unmarked) [Compound 117] ({Biphenylcarbonyl(4'-Bu)}-[dS][dA]G[ξP]AN-boroGly)	350	>64	300	>64			
CCCCc1ccc(-c2ccc(C(=O)N[C@H](CO)C(=O)N[C@H](C)C(=O)N3CCC[C@H]3C(=O)N[C@H](C(=O)N[C@@H](C)C(=O)N[C@@H](CC(N)=O)C(=O)NCB(O)O)C(C)O)cc2)cc1 (some centres unmarked) [Compound 116] ({Biphenylcarbonyl(4'-Bu)}-[dS][dA]P[Thr(3ξ)]AN-boroGly)	38	>64	310	>64			
CCCCc1ccc(-c2ccc(C(=O)N[C@H](CO)C(=O)N[C@H](C)C(=O)NCC(=O)N(C)[C@@H](CCCCN)C(=O)N[C@@H](C)C(=O)N[C@@H](CC(N)=O)C(=O)NCB(O)O)cc2)cc1 [Compound 120] ({Biphenylcarbonyl(4'-Bu)}-[dS][dA]G[NMeK]AN-boroGly)	100	32 (≈ 37.5 µM)	1600	>64			
CCCCCCCCCC(=O)N[C@@H](CC(C)C)C(=O)N[C@H](C(=O)N1CCC[C@@H]1C(=O)N[C@H](C(=O)N[C@@H](C)C(=O)N[C@@H](Cc1ccc(O)cc1)C(=O)NCB(O)O)C(C)O)C(C)O (some centres unmarked) [Compound 128] (Decanoyl-L[Thr(3ξ)][dP][Thr(3ξ)]AY-boroGly)	670	>64	3000	>64			
